Source: BindingDB's records for doi:10.7270/Q22V2DH9 (Nmmlsc, 2007)

Each compound was assayed against T1, N-formyl peptide receptor 2 (Homo sapiens, UniProt P25090) (assay: human FPR2 ligand displacement potency – cell-based, flow cytometry, Ki from IC50, selectivity assay for FPR1 ligand SAR project, dose response (AID 723)).
T1 sequence (P25090 whole entry): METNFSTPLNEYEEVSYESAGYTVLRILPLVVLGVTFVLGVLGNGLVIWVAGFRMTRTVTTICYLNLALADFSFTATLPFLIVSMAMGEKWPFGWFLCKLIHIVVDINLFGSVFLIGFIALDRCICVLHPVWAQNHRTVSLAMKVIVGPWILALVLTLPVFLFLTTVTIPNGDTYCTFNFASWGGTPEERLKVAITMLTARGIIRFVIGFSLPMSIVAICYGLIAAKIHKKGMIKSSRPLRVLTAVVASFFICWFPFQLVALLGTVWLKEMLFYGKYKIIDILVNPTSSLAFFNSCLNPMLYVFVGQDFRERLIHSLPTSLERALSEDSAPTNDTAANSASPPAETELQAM

IC50, > 66.7 µM:
O=C1NC(c2ccc(Br)cc2)C(C(=O)c2ccc(Cl)cc2)C1=O (stereo not given) [(4E)-5-(4-bromophenyl)-4-[(4-chlorophenyl)-hydroxy-methylene]pyrrolidine-2,3-quinone]
Cc1ccc(C(=O)C2C(=O)C(=O)N(Cc3cccnc3)C2c2ccc(Br)cc2)cc1 (stereo not given) [(4E)-5-(4-bromophenyl)-4-[(4-methylphenyl)-oxidanyl-methylidene]-1-(pyridin-3-ylmethyl)pyrrolidine-2,3-dione]
Cc1ccc(N2C(=O)C(=O)C(C(=O)c3ccccc3)C2c2cccc(F)c2)cc1Br (stereo not given) [(4Z)-1-(3-bromanyl-4-methyl-phenyl)-5-(3-fluorophenyl)-4-[oxidanyl(phenyl)methylidene]pyrrolidine-2,3-dione]
CCCCCCN1C(=O)C(=O)C(C(=O)c2ccccc2)C1c1ccc(O)c(OC)c1 (stereo not given) [(4Z)-1-hexyl-5-(3-methoxy-4-oxidanyl-phenyl)-4-[oxidanyl(phenyl)methylidene]pyrrolidine-2,3-dione]
COc1cccc(/C=C2/C(=O)NN(c3ccc(C)cc3)C2=O)c1 [(4Z)-4-[(3-methoxyphenyl)methylidene]-1-(4-methylphenyl)pyrazolidine-3,5-dione]
COc1ccc(C(=O)C2C(=O)C(=O)NC2c2ccc(OC)cc2OC)cc1 (stereo not given) [(4Z)-5-(2,4-dimethoxyphenyl)-4-[(4-methoxyphenyl)-oxidanyl-methylidene]pyrrolidine-2,3-dione]
CCCCCCOc1cccc(N2C(=O)C(=O)C(C(=O)c3ccccc3)C2c2cccc(F)c2)c1 (stereo not given) [(4Z)-5-(3-fluorophenyl)-1-(3-hexoxyphenyl)-4-[hydroxy(phenyl)methylene]pyrrolidine-2,3-quinone]
O=C1C(=O)N(c2ccc(F)cc2)C(c2ccc(Br)cc2)C1C(=O)c1ccccc1 (stereo not given) [(4Z)-5-(4-bromophenyl)-1-(4-fluorophenyl)-4-[hydroxy(phenyl)methylene]pyrrolidine-2,3-quinone]
N#Cc1c(N=C(CC(=O)c2ccccc2)C(=O)O)sc2c1CCC2 [(Z)-2-[(3-cyano-5,6-dihydro-4H-cyclopenta[b]thiophen-2-yl)amino]-4-keto-4-phenyl-but-2-enoic acid]
COc1ccc(OC)c(CNC(=O)Cn2c(=O)sc3ccccc32)c1 [N-(2,5-dimethoxybenzyl)-2-(2-keto-1,3-benzothiazol-3-yl)acetamide]
Cc1cccc(C)c1NC(=O)C(NC(=O)Cc1cccs1)c1ccccc1 (stereo not given) [N-(2,6-dimethylphenyl)-2-[(1-oxo-2-thiophen-2-ylethyl)amino]-2-phenylacetamide]
CC(C)C(=O)N(Cc1ccco1)S(=O)(=O)c1cccc2cccnc12 [N-(2-furanylmethyl)-2-methyl-N-(8-quinolinylsulfonyl)propanamide]
CCCC(=O)N(Cc1ccco1)S(=O)(=O)c1cccc2cccnc12 [N-(2-furanylmethyl)-N-(8-quinolinylsulfonyl)butanamide]
COc1cccc(-c2ccnc3[nH]n(-c4ccccc4)c(=O)c23)c1 [UNM000003608001]
CCc1cc2c(=O)c(-c3nc4ccccc4n3C)c(C)oc2cc1OC(C)=O [acetic acid [6-ethyl-2-methyl-3-(1-methyl-2-benzimidazolyl)-4-oxo-1-benzopyran-7-yl] ester]
